The results in this text go back to article PMC5363571 (Oncotarget, 2016).

Where a name gives a salt, the structure may show the parent alone. Some results are limits rather than exact numbers.

Sequence of USP7 (Q93009 whole entry): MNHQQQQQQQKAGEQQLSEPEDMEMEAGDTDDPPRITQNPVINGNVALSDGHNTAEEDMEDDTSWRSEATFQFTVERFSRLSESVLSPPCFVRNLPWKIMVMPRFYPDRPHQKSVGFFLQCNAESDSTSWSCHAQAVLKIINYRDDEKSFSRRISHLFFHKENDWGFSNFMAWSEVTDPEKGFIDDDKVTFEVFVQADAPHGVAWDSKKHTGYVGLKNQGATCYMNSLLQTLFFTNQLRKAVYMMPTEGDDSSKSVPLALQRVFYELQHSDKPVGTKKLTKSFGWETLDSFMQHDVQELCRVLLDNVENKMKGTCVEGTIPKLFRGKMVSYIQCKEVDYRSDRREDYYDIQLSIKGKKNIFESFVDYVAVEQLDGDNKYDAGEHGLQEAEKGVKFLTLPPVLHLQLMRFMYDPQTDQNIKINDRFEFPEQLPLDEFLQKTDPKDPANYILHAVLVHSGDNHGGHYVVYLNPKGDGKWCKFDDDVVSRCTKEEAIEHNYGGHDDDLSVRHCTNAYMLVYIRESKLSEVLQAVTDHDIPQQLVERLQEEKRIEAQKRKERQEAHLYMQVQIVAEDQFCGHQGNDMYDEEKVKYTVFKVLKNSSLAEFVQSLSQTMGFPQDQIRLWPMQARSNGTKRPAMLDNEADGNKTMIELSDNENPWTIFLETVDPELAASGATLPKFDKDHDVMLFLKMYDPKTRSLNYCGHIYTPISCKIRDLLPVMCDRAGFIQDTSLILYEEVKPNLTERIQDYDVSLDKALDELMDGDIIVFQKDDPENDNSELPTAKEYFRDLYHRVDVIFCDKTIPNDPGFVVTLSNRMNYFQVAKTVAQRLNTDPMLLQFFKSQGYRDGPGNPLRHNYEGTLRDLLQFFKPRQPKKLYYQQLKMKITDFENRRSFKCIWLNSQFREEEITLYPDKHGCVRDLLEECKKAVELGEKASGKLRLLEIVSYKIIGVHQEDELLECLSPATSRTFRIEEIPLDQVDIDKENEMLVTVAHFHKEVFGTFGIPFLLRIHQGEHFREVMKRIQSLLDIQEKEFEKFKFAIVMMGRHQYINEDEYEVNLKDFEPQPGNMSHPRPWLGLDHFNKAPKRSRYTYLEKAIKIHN

The first assay addresses USP7 (Homo sapiens, UniProt Q93009). The assay is described as follows: biochemical. More on the design: Ub-AMC hydrolysis by recombinant USP7 (20 nM), 30 min pre-incubation, fluorescence read-out. Particulars: inhibitor.
Turning to `CNC(=O)Oc1ccc2c(c1)[C@]1(C)CCN(C)[C@@H]1N2C` [Physostigmine sulfate], the % Inhibition (in general, the drop in the measured response relative to a control, in per cent) at 50 μM is <5%.

The same assay, now with this note: read-out: % Inhibition at 50 μM.
On to `CC1CCc2c(N3CCC(O)CC3)c(F)cc3c(=O)c(C(=O)O)cn1c23` (stereo not shown) [Nadifloxacin], for which the inhibition (in general, the relative decrease from the control value, in per cent) at 50 µM is < 5%. As to `O=C1CC[C@@]2(O)[C@H]3Cc4ccc(O)c5c4[C@@]2(CCN3CC2CC2)[C@H]1O5` [Naltrexone HCl], the inhibition at 50 µM is < 5%. On the same count and under the same terms, the figure for `Oc1ccc2c3c1O[C@H]1c4[nH]c5ccccc5c4C[C@@]4(O)[C@@H](C2)N(CC2CC2)CC[C@]314` [Naltrindole HCl] is < 5%; for `c1ccc2c(CC3=NCCN3)cccc2c1` [Naphazoline HCl] it is < 5%; for `CCc1nn(CCCN2CCN(c3cccc(Cl)c3)CC2)c(=O)n1CCOc1ccccc1` [Nefazodone] it is < 5%. Turning to `CN(C)C(=O)Oc1cccc([N+](C)(C)C)c1` [Neostigmine Br], the inhibition at 50 µM was < 5%. On the same count and under the same terms, the same measure for `O=C(CCNNC(=O)c1ccncc1)NCc1ccccc1` [Nialamide]: < 5%; for `COC(=O)C1=C(C)NC(C)=C(C(=O)OCCN(C)Cc2ccccc2)C1c1cccc([N+](=O)[O-])c1` (stereo not shown) [Nicardipine]: < 5%; for `O=C(O)c1cccnc1Nc1cccc(C(F)(F)F)c1` [Niflumic acid]: < 5%. On the same count and under the same terms, the same measure for `COC(=O)C1=C(C)NC(C)=C(C(=O)OCCCN2CCC(c3ccccc3)(c3ccccc3)CC2)[C@H]1c1cccc([N+](=O)[O-])c1` [Niguldipine HCl]: < 5%; for `CS(=O)(=O)Nc1ccc([N+](=O)[O-])cc1Oc1ccccc1` [Nimesulide]: < 5%. On the same count and under the same terms, the figure for `CNCCC(Oc1ccccc1OC)c1ccccc1` (stereo not shown) [Nisoxetine HCl] is < 5%. On to `NC[C@H](O)c1ccc(O)c(O)c1` [Norepinephrine-(+)-tartrate l (-)], for which the inhibition at 50 µM is < 5%. The same measure, in the same setting: the same measure for `CO[C@@H]1[C@@H](OC(N)=O)[C@@H](O)[C@H](Oc2ccc3c(O)c(NC(=O)c4ccc(O)c(CC=C(C)C)c4)c(=O)oc3c2C)OC1(C)C` [Novobiocin Na]: < 5%. On to `CC1(C)CC[C@]2(C(=O)O)CC[C@]3(C)C(=CC[C@@H]4[C@@]5(C)CC[C@H](O)C(C)(C)[C@@H]5CC[C@]43C)[C@@H]2C1` [Oleanolic acid], for which the inhibition at 50 µM is 69.2%.

For the molecule `CCCc1nc(C(C)(C)O)c(C(=O)O)n1Cc1ccc(-c2ccccc2-c2nnn[nH]2)cc1` [Olmesartan], the inhibition at 50 µM is < 5%. On the same count and under the same terms, the figure for `CN(C)CC/C=C1/c2ccccc2COc2ccc(CC(=O)O)cc21` [Olopatadine] is < 5%; for `C[C@@H]1O[C@@H](O[C@H]2C[C@@H](O)[C@]3(CO)[C@H]4[C@H](O)C[C@]5(C)[C@@H](C6=CC(=O)OC6)CC[C@]5(O)[C@@H]4CC[C@]3(O)C2)[C@H](O)[C@H](O)[C@H]1O` [Ouabain] it is < 5%. Regarding `O=C(O)/C=C/c1ccc(Cn2ccnc2)cc1` [Ozagrel], the inhibition at 50 µM was < 5%. As to `CC(=O)O[C@H]1C[C@@H]2CC[C@@H]3[C@H](CC[C@@]4(C)[C@H]3C[C@H]([N+]3(C)CCCCC3)[C@@H]4OC(C)=O)[C@@]2(C)C[C@@H]1[N+]1(C)CCCCC1` [Pancuronium Br], the inhibition at 50 µM was < 5%. Same read-out and setting: the same measure for `CC(C)(CO)[C@@H](O)C(=O)NCCC(=O)O` [Pantothenic acid]: < 5%; for `CCCN1C[C@H](CSC)C[C@@H]2c3cccc4[nH]cc(c34)C[C@H]21` [Pergolide mesylate]: < 5%. In the case of `CC(COc1ccccc1)N(CCCl)Cc1ccccc1` (stereo not shown) [Phenoxybenzamine HCl], the inhibition at 50 µM was < 5%. Same read-out and setting: the same measure for `Cc1ccc(N(CC2=NCCN2)c2cccc(O)c2)cc1` [Phentolamine HCl]: < 5%; for `C[C@H](N)[C@H](O)c1ccccc1` [Phenylpropanolamine]: < 5%. Same read-out and setting: the same measure for `O=C1NC(=O)C(c2ccccc2)(c2ccccc2)N1` [Phenytoin]: < 5%. Still for that read-out and setting: the same measure for `COc1ccc(C(=O)NCc2cccnc2)cc1C(=O)NCc1cccnc1` [Picotamide]: < 5%; for `CC[C@@H]1C(=O)OC[C@@H]1Cc1cncn1C` [Pilocarpine HCl]: < 5%; for `O=c1[nH]c2ccccc2n1C1CCN(CCCC(c2ccc(F)cc2)c2ccc(F)cc2)CC1` [Pimozide]: < 5%. With `CC(N/C(=N\C#N)Nc1ccncc1)C(C)(C)C` (stereo not shown) [Pinacidil], the inhibition at 50 µM was < 5%. Same read-out and setting: the same measure for `CC(C)NCC(O)COc1cccc2[nH]ccc12` (stereo not shown) [Pindolol]: < 5%; for `CN1CCN(CC(=O)N2c3ccccc3C(=O)Nc3cccnc32)CC1` [Pirenzepine 2HCl]: < 5%; for `c1cnc(N2CCN(Cc3ccc4c(c3)OCO4)CC2)nc1` [Piribedil HCl]: < 5%. As for `CN1C(C(=O)Nc2ccccn2)=C(O)c2ccccc2S1(=O)=O` [Piroxicam], the inhibition at 50 µM is < 5%. On to `CO[C@H](C(=O)[C@@H](O)[C@@H](C)O)[C@@H]1Cc2cc3cc(O[C@H]4C[C@@H](O[C@@H]5C[C@@H](O)[C@H](O)[C@@H](C)O5)[C@H](O)[C@@H](C)O4)c(C)c(O)c3c(O)c2C(=O)[C@H]1O[C@H]1C[C@@H](O[C@@H]2C[C@@H](O)[C@@H](O[C@@H]3C[C@](C)(O)[C@H](O)[C@@H](C)O3)[C@@H](C)O2)[C@H](O)[C@@H](C)O1` [Plicamycin], for which the inhibition at 50 µM was < 5%. The same measure, in the same setting: the same measure for `CC1(C)CCC2(C(=O)O)C(O)CC3(C)C(=CCC4C5(C)CC(O)C(O)C(C)(CO)C5CCC43C)C2C1` (stereo not shown) [Polygalacic acid]: < 5%; for `COc1ccc(C(=O)c2c(C)n(CCN3CCOCC3)c3ccccc23)cc1` [Pravadoline]: < 5%; for `O=C(C1CCCCC1)N1CC(=O)N2CCc3ccccc3C2C1` (stereo not shown) [Praziquantel]: < 5%.

As to `CC(=O)[C@H]1CC[C@H]2[C@@H]3CC=C4C[C@@H](O)CC[C@]4(C)[C@H]3CC[C@]12C` [Pregnenolone], the inhibition at 50 µM is < 5%. Regarding `COc1cc(NC(C)CCCN)c2ncccc2c1` (stereo not shown) [Primaquine phosphate], the inhibition at 50 µM is < 5%. Same read-out and setting: the same measure for `COC(=O)[C@]1(C)CC[C@]2(C)CC[C@]3(C)C4=CC=C5C(=CC(=O)C(O)=C5C)[C@]4(C)CC[C@@]3(C)[C@@H]2C1` [Pristimerin]: 39.1%; for `CCN(CC)CCNC(=O)c1ccc(N)cc1` [Procainamide]: < 5%; for `CCC(NC(C)C)C(O)c1ccc(O)c2[nH]c(=O)ccc12` (stereo not shown) [Procaterol hcl]: < 5%. Same read-out and setting: the same measure for `CC(CN1c2ccccc2Sc2ccccc21)N(C)C` (stereo not shown) [Promethazine HCl]: 8.9%; for `CC(C)NCC(O)c1ccc2ccccc2c1` (stereo not shown) [Pronethalol HCl]: 8.3%.

`CCCNCC(O)COc1ccccc1C(=O)CCc1ccccc1` (stereo not shown) [Propafenone]: the inhibition at 50 µM turned out to be 78.2%. Still for that read-out and setting: the same measure for `CC(C)c1cccc(C(C)C)c1O` [Propofol]: < 5%. On the same count and under the same terms, the same measure for `COc1ccc(C[C@H](N)C(=O)N[C@H]2[C@@H](O)[C@H](n3cnc4c(N(C)C)ncnc43)O[C@@H]2CO)cc1` [Puromycin 2HCl]: < 5%; for `OCCOCCN1CCN(C2=Nc3ccccc3Sc3ccccc32)CC1` [Quetiapine fumarate]: < 5%; for `CCN(CC)CCCC(C)Nc1c2ccc(Cl)cc2nc2ccc(OC)cc12` (stereo not shown) [Quinacrine 2HCl dihydrate]: < 5%.

As for `CCOC(=O)[C@H](CCc1ccccc1)N[C@@H](C)C(=O)N1Cc2ccccc2C[C@H]1C(=O)O` [Quinapril HCl], the inhibition at 50 µM is < 5%. On the same count and under the same terms, the same measure for `C=C[C@H]1CN2CC[C@H]1C[C@H]2[C@H](O)c1ccnc2ccc(OC)cc12` [Quinine]: 16.9%; for `CC(=O)SCC(Cc1ccccc1)C(=O)NCC(=O)OCc1ccccc1` (stereo not shown) [Racecadotril]: < 5%; for `CCN1CCC[C@H]1CNC(=O)c1c(O)c(Cl)cc(Cl)c1OC` [Raclopride l-tartrate s(-)]: < 5%. The same measure, in the same setting: the same measure for `O=C(c1ccc(OCCN2CCCCC2)cc1)c1c(-c2ccc(O)cc2)sc2cc(O)ccc12` [Raloxifene HCl]: < 5%; for `CNC(=C[N+](=O)[O-])NCCSCc1ccc(CN(C)C)o1` [Ranitidine HCl]: < 5%. The same measure, in the same setting: the same measure for `CO[C@H]1C[C@@H]2CC[C@@H](C)[C@@](O)(O2)C(=O)C(=O)N2CCCC[C@H]2C(=O)O[C@H]([C@H](C)C[C@@H]2CC[C@@H](O)[C@H](OC)C2)CC(=O)[C@H](C)/C=C(\C)[C@@H](O)[C@@H](OC)C(=O)[C@H](C)C[C@H](C)/C=C/C=C/C=C/1C` [Rapamycin]: < 5%; for `CC1=C(/C=C/C(C)=C/C=C/C(C)=C/C(=O)O)C(C)(C)CCC1` [Retinoic acid]: < 5%; for `CCC[S+]([O-])c1ccc2[nH]c(NC(=O)OC)nc2c1` (stereo not shown) [Ricobendazole]: < 5%. With `CO[C@H]1/C=C/O[C@@]2(C)Oc3c(C)c(O)c4c(O)c(c(/C=N/N5CCN(C)CC5)c(O)c4c3C2=O)NC(=O)/C(C)=C\C=C\[C@H](C)[C@H](O)[C@@H](C)[C@@H](O)[C@@H](C)[C@H](OC(C)=O)[C@@H]1C` [Rifampicin], the inhibition at 50 µM is < 5%. Same read-out and setting: the same measure for `Nc1nc2ccc(OC(F)(F)F)cc2s1` [Riluzole HCl]: < 5%; for `Cc1nc2n(c(=O)c1CCN1CCC(c3noc4cc(F)ccc34)CC1)CCCC2` [Risperidone]: < 5%. Same read-out and setting: the same measure for `COc1ccc(C2CNC(=O)C2)cc1OC1CCCC1` (stereo not shown) [Rolipram]: < 5%; for `CN(CCOc1ccc(CC2SC(=O)NC2=O)cc1)c1ccccn1` (stereo not shown) [Rosiglitazone maleate]: < 5%; for `CC(C)(C)NCC(O)c1ccc(O)c(CO)c1` (stereo not shown) [Salbutamol sulfate]: < 5%. Still for that read-out and setting: the figure for `OCc1cc(C(O)CNCCCCCCOCCCCc2ccccc2)ccc1O` (stereo not shown) [Salmeterol] is < 5%.
